Values of other authors as cited in PMC6271218, “Pharmacokinetics, Tissue Distribution and Excretion of Verticinone from F. hupehensis in Rats” (Molecules, 2014).

Set-up: method as in PMID 20446906
Conditions: same dose administered; cited from earlier work

For `C[C@@H](Oc1cc(-c2cnn(C3CCNCC3)c2)cnc1N)c1c(Cl)ccc(F)c1Cl` [PF-02341066], the “plasma concentrations, fold higher in male than in female rats” value is listed as “at least 2 fold”.
